Reference: ChEMBL document CHEMBL4152360 (Bioorg Med Chem, 2018)

What was measured:
[1] = target: Mitogen-activated protein kinase kinase kinase 7 (Homo sapiens) (UniProt O43318); assay: Inhibition of human TAK1 assessed as enzyme residual activity at 100 nM by radiometric filter binding assay relative to control
[2] = target: AMP-activated protein kinase, AMPK (Homo sapiens) (UniProt P54646+O43741+P54619+Q9UGJ0+Q9Y478+Q13131+Q9UGI9); assay: Inhibition of human AMPK assessed as enzyme residual activity at 100 nM by radiometric filter binding assay relative to control; assay type: protein-complex assay
[3] = target: Mitogen-activated protein kinase kinase kinase 11 (Homo sapiens) (UniProt Q16584); assay: Inhibition of human MLK3 assessed as enzyme residual activity at 100 nM by radiometric filter binding assay relative to control
[4] = target: Dual specificity protein kinase TTK (Homo sapiens) (UniProt P33981); assay: Inhibition of human TTK assessed as enzyme residual activity at 100 nM by radiometric filter binding assay relative to control
[5] = target: Mitogen-activated protein kinase 8 (Homo sapiens) (UniProt P45983); assay: Inhibition of human JNK1 assessed as enzyme residual activity at 100 nM by radiometric filter binding assay relative to control
[6] = target: Dual specificity mitogen-activated protein kinase kinase 1 (Homo sapiens) (UniProt Q02750); assay: Inhibition of human MKK1 assessed as enzyme residual activity at 100 nM by radiometric filter binding assay relative to control
[7] = target: High affinity nerve growth factor receptor (Homo sapiens) (UniProt P04629); assay: Inhibition of human TRKA assessed as enzyme residual activity at 100 nM by radiometric filter binding assay relative to control
[8] = target: Serine/threonine-protein kinase pim-1 (Homo sapiens) (UniProt P11309); assay: Inhibition of human PIM1 assessed as enzyme residual activity at 100 nM by radiometric filter binding assay relative to control
[9] = target: Serine/threonine-protein kinase Chk2 (Homo sapiens) (UniProt O96017); assay: Inhibition of human CHK2 assessed as enzyme residual activity at 100 nM by radiometric filter binding assay relative to control
[10] = target: Rho-associated protein kinase 2 (Rattus norvegicus) (UniProt Q62868); assay: Inhibition of rat ROCK2 assessed as enzyme residual activity at 100 nM by radiometric filter binding assay relative to control
[11] = target: Serine/threonine-protein kinase PAK 4 (Homo sapiens) (UniProt O96013); assay: Inhibition of human PAK4 assessed as enzyme residual activity at 100 nM by radiometric filter binding assay relative to control
[12] = target: Interleukin-1 receptor-associated kinase 4 (Homo sapiens) (UniProt Q9NWZ3); assay: Inhibition of human IRAK4 assessed as enzyme residual activity at 100 nM by radiometric filter binding assay relative to control
[13] = target: Serine/threonine-protein kinase Nek6 (Homo sapiens) (UniProt Q9HC98); assay: Inhibition of human NEK6 assessed as enzyme residual activity at 100 nM by radiometric filter binding assay relative to control
[14] = target: Proto-oncogene tyrosine-protein kinase Src (Homo sapiens) (UniProt P12931); assay: Inhibition of human SRC assessed as enzyme residual activity at 100 nM by radiometric filter binding assay relative to control
[15] = target: RAC-alpha serine/threonine-protein kinase (Homo sapiens) (UniProt P31749); assay: Inhibition of human PKBa assessed as enzyme residual activity at 100 nM by radiometric filter binding assay relative to control
[16] = target: Eukaryotic elongation factor 2 kinase (Homo sapiens) (UniProt O00418); assay: Inhibition of human EF2K assessed as enzyme residual activity at 100 nM by radiometric filter binding assay relative to control
[17] = target: Ephrin type-A receptor 2 (Homo sapiens) (UniProt P29317); assay: Inhibition of human EPHA2 assessed as enzyme residual activity at 100 nM by radiometric filter binding assay relative to control
[18] = target: Serine/threonine-protein kinase STK11 (Homo sapiens) (UniProt Q15831); assay: Inhibition of human LKB1 assessed as enzyme residual activity at 100 nM by radiometric filter binding assay relative to control
[19] = target: Receptor tyrosine-protein kinase erbB-4 (Homo sapiens) (UniProt Q15303); assay: Inhibition of human HER4 assessed as enzyme residual activity at 100 nM by radiometric filter binding assay relative to control
[20] = target: Insulin-like growth factor 1 receptor (Homo sapiens) (UniProt P08069); assay: Inhibition of human IGF1R assessed as enzyme residual activity at 100 nM by radiometric filter binding assay relative to control
Sequence of Insulin-like growth factor 1 receptor (Homo sapiens) (P08069 31-736 limits assumed): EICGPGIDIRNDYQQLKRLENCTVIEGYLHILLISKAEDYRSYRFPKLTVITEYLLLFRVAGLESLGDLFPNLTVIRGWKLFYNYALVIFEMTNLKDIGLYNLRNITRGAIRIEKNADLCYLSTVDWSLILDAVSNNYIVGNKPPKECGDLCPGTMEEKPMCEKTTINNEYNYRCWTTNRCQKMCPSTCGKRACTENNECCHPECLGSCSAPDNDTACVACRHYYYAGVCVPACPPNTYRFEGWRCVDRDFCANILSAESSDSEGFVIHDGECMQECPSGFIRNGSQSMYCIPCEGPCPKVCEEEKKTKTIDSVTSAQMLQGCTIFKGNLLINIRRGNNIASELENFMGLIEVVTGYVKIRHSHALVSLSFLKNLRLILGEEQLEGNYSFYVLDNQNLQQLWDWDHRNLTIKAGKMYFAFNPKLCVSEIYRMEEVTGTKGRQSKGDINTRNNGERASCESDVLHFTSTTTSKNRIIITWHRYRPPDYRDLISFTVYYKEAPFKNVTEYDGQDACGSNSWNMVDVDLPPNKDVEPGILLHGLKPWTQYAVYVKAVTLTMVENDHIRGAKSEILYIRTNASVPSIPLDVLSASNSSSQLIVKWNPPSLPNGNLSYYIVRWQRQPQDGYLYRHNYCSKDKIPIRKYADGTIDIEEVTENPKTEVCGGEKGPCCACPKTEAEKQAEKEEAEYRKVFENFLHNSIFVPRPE
Sequence of Insulin-like growth factor 1 receptor (Homo sapiens) (P08069 741-1367 limits assumed): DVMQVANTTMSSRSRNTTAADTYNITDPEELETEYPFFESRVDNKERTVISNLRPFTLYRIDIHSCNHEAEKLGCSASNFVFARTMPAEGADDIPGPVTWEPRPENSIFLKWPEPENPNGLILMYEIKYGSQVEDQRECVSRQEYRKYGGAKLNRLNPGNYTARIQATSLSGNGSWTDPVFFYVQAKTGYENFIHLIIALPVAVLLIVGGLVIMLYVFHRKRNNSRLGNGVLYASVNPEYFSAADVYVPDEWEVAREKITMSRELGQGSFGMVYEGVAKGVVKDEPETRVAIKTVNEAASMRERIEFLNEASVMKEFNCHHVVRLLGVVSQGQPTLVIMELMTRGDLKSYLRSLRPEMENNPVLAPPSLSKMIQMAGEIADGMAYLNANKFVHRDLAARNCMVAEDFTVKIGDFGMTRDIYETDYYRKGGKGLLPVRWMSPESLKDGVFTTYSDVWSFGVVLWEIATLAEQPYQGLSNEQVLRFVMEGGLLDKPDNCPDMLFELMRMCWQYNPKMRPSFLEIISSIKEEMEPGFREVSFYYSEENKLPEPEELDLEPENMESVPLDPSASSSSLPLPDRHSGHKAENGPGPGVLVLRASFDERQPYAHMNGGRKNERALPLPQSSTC

Sequence of Dual specificity mitogen-activated protein kinase kinase 1 (Homo sapiens) (Q02750 whole entry): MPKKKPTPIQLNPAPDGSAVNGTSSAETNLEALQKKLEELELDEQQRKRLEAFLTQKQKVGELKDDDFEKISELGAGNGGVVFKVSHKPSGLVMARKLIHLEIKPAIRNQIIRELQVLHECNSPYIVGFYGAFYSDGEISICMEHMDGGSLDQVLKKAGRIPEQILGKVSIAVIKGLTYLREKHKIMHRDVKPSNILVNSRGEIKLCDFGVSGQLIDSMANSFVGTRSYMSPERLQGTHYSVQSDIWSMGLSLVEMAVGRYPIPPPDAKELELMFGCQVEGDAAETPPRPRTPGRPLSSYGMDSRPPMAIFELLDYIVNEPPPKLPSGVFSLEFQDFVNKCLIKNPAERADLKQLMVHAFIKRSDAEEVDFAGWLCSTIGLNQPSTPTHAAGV
Sequence of Serine/threonine-protein kinase PAK 4 (Homo sapiens) (O96013 whole entry, looked up): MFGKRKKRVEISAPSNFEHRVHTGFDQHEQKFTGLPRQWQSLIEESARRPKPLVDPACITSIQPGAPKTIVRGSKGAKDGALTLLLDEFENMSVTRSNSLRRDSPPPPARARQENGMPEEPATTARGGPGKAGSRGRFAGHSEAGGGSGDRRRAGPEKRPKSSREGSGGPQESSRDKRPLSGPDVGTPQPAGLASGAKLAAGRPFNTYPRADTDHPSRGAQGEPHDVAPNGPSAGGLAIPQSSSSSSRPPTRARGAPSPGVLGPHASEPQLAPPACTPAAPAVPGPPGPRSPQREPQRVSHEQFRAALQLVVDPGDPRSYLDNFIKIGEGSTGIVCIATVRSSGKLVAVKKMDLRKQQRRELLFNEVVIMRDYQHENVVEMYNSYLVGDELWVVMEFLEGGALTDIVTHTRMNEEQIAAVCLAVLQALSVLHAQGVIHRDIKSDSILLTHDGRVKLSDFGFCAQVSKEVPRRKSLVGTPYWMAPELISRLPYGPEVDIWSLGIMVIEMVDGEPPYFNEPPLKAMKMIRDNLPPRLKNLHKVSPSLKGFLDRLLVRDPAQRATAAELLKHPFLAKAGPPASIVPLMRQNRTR
Sequence of Ephrin type-A receptor 2 (Homo sapiens) (P29317 whole entry): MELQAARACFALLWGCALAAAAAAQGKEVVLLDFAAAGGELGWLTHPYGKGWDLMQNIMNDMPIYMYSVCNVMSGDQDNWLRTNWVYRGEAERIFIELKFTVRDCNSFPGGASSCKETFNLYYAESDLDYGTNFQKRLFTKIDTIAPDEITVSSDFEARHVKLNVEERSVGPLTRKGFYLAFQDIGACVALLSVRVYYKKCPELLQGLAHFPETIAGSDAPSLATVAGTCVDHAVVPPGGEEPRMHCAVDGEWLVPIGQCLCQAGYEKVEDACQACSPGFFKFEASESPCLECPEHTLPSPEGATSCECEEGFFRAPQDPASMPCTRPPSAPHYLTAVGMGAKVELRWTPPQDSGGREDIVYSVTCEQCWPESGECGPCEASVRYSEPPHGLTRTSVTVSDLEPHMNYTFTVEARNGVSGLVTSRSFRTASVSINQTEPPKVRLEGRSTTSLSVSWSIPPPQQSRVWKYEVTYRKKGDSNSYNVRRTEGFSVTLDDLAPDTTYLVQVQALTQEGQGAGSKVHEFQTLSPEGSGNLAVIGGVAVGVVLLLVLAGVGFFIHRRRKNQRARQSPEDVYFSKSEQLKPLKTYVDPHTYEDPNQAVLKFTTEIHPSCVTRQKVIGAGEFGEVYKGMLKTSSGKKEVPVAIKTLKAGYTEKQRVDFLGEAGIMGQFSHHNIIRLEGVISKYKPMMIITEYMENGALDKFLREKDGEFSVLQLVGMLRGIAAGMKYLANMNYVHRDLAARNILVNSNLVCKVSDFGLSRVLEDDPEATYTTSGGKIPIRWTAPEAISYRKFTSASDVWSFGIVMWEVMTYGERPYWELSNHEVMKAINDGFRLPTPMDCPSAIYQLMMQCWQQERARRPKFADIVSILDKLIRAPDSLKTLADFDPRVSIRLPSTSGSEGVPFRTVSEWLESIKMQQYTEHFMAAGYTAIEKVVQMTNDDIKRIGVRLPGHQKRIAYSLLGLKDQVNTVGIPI
Sequence of Proto-oncogene tyrosine-protein kinase Src (Homo sapiens) (P12931 2-536 limits assumed): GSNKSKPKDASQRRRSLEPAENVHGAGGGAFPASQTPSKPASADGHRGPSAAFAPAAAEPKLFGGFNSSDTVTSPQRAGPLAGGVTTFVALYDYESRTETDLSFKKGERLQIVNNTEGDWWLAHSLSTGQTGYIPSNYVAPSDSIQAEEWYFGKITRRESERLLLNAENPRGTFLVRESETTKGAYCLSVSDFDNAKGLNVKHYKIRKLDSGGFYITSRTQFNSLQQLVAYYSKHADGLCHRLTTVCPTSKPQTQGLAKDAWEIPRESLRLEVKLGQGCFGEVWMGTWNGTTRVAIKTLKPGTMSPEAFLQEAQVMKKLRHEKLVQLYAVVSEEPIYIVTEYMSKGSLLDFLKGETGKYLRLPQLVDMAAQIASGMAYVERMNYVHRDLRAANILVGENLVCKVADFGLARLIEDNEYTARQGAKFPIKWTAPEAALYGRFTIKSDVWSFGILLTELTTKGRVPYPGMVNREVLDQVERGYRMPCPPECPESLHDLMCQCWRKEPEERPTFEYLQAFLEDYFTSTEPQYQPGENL
Sequence of RAC-alpha serine/threonine-protein kinase (Homo sapiens) (P31749 whole entry): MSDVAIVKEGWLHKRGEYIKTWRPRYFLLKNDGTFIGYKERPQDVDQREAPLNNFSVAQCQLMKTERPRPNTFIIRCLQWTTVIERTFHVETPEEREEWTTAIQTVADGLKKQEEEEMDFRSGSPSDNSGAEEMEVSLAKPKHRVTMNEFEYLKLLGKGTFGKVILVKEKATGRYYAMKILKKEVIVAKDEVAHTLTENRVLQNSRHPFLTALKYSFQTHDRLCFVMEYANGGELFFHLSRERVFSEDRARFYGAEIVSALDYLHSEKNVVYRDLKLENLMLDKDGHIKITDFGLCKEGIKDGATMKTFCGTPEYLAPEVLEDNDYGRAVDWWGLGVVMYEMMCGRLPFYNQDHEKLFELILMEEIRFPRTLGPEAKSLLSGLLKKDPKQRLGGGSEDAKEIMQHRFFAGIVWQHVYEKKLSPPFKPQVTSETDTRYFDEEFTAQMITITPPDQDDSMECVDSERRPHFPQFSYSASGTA
Sequence of Serine/threonine-protein kinase pim-1 (Homo sapiens) (P11309 whole entry, looked up): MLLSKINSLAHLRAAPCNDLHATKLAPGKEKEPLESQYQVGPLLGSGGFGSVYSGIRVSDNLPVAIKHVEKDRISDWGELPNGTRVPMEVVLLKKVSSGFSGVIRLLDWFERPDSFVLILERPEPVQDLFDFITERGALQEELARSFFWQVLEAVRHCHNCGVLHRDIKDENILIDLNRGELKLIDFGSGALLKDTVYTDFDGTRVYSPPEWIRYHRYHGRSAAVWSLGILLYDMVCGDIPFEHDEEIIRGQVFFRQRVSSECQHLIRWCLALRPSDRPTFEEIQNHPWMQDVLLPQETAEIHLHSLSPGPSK
Sequence of Serine/threonine-protein kinase Nek6 (Homo sapiens) (Q9HC98 whole entry): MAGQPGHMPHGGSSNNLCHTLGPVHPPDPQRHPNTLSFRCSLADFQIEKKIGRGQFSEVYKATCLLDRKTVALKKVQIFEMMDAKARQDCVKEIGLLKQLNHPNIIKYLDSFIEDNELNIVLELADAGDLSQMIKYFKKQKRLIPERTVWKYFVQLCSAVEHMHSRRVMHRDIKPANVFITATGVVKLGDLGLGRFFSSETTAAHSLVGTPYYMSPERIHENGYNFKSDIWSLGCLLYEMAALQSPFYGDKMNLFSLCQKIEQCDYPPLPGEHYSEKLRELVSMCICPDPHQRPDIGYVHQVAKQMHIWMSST

Activity [1]: 62%
Activity [2]: 69%
Activity [3]: 69%
Activity [4]: 85%
Activity [5]: 86%
Activity [6]: 88%
Activity [7]: 88%
Activity [8]: 91%
Activity [9]: 96%
Activity [10]: 96.5%
Activity [11]: 101%
Activity [12]: 102%
Activity [13]: 103%
Activity [14]: 103%
Activity [15]: 105%
Activity [16]: 106%
Activity [17]: 107%
Activity [18]: 107%
Activity [19]: 113%
Activity [20]: 143%
Structure (SMILES): NCCCC[C@@H](NC(=O)[C@@H](CC(=O)O)NC(=O)[C@@H](CC(=O)O)NC(=O)[C@@H](CC(=O)O)NC(=O)[C@@H](CC(=O)O)NC(=O)[C@@H](CC(=O)O)NC(=O)[C@@H](CC(=O)O)NC(=O)CCCCCNC(=O)CCC(=O)Nc1ncc(-c2ccc(C(=O)O)cc2)s1)C(=O)O
